Measured values from patent US6537995B2, “Heterocyclic carboxamides” (Pfizer Inc., priority 1998, dated 2003).

Row | melting point | SMILES
1 | 187 to 188 °C | CN1CCN(c2ccccc2-c2ccc(C(=O)NCc3ccc(F)cc3)s2)CC1.Cl.O (hydrate or solvate)
2 | 256 to 257 °C | CN1CCN(c2ccccc2-c2ccc(C(=O)NCc3ccc(Cl)cc3)s2)CC1.Cl.O (hydrate or solvate)
3 | 140 °C (dec.) | COc1ccc(CNC(=O)c2ccc(-c3ccccc3N3CCN(C)CC3)s2)cc1.Cl
4 | 145 °C (dec.) | CN1CCN(c2ccccc2-c2ccc(C(=O)NCc3ccccc3)s2)CC1.Cl.O.O (hydrate or solvate)

The next lines start with the compound.

Row | SMILES | melting point
5 | CN1CCN(c2ccccc2-c2ccc(C(=O)Nc3ccc(Cl)cc3)o2)CC1.Cl.O (hydrate or solvate) | 145 °C (dec.)
6 | CN1CCN(c2ccccc2-c2ccc(C(=O)Nc3ccc(Cl)cc3)s2)CC1.Cl | 149 °C (dec.)
7 | CN1CCN(c2ccccc2-c2ccc(C(=O)NCc3ccc(Cl)cc3)o2)CC1.Cl.O (hydrate or solvate) | 110 °C (dec.)
8 | CN1CCN(c2ccc(F)cc2-c2ccc(C(=O)NCc3ccc(Cl)cc3)s2)CC1.O (hydrate or solvate) | 175 to 176.5 °C
9 | CN1CCN(c2ccccc2-c2ccc(C(=O)NCc3ccc(Cl)cc3)[nH]2)CC1.Cl | 80 °C (dec.)
